Read-outs that look alike come from different tables or passages of the source.
Tests used:
[1] = Solubility of second liquid in the first liquid at 25° C. and 1 atm; settings: for Solubility in first liquid: first liquid described in Table 1; for solubility in first solution: liquids of Comparative Examples 5 to 11
[2] = Solubility in water at 25° C. and 1 atm
Description: In the method for producing an electrophotographic photosensitive member of the present invention, the charge transporting substance and the binder resin are dissolved in the first liquid to prepare the first solution. […] Specific examples of the first liquid are shown in Table 1, but are not limited to the examples in Table 1.
Then, the second solution will be described.

[3] = second liquid, 25° C. and 1 atm
[4] = liquids of Comparative Examples 5 to 11, 25° C. and 1 atm

SMILES	Solubility in first liquid [1]	other results
CCOCCOCCOC [Second liquid example (26), diethylene glycol methyl ethyl ether]	5.0 mass % or	–
CCCC(C)=O [Second liquid example (8), 2-pentanone]	5.0 mass % or	Solubility in water [2, 3]: 5.9 mass %
OCCOCCOc1ccccc1 [Liquid (2), diethylene glycol monophenyl ether, reference compound]	–	Solubility in water [2, 4]: 3.4 mass %; solubility in first solution [1]: ≥ 5.0 mass %
CCOCCOCCOCC [Second liquid example (27), diethylene glycol diethyl ether]	5.0 mass % or	–
COC(C)CCOC(C)=O (stereo not drawn) [Second liquid example (34), 3-methoxybutyl acetate]	5.0 mass % or	–
Clc1ccccc1Cl [First liquid example (3), o-Dichlorobenzene]	–	Solubility in water [2]: 0.0 mass %
COC(C)COC(C)CO (stereo not drawn) [Second liquid example (22), dipropylene glycol monomethyl ether]	5.0 mass % or	–
CCCCOCC(C)O (stereo not drawn) [Second liquid example (13), propylene glycol n-butyl ether]	5.0 mass % or	Solubility in water [2, 3]: 6.0 mass %
CCOc1ccccc1 [First liquid example (7), Phenetole]	–	Solubility in water ([2]; first liquid, 25° C. and 1 atm): 0.1 mass %
COCC(C)OC(C)=O (stereo not drawn) [Second liquid example (25), propylene glycol monomethyl ether acetate]	5.0 mass % or	Solubility in water [2, 3]: 20.5 mass %
CCCCOCC(C)O (stereo not drawn) [Second liquid example (24), propylene glycol monobutyl ether]	5.0 mass % or	Solubility in water [2, 3]: 6.4 mass %
CCOC(C)=O [Second liquid example (31), ethyl acetate]	5.0 mass % or	–
C=CCOCCO [Second liquid example (20), ethylene glycol monoallyl ether]	5.0 mass % or	–
CCc1ccccc1 [First liquid example (6), Ethylbenzene]	–	Solubility in water ([2]; first liquid, 25° C. and 1 atm): 0.0 mass %
COCCOCCOC [Second liquid example (11), diethylene glycol dimethyl ether]	5.0 mass % or	–
COCC(C)OCC(C)OC (stereo not drawn) [Second liquid example (28), dipropylene glycol dimethyl ether]	5.0 mass % or	–
CCCCOC(C)COC(C)COC(C)CO (stereo not drawn) [Liquid (5), tripropylene glycol n-butyl ether, reference compound]	–	Solubility in water [2, 4]: 2.9 mass %; solubility in first solution [1]: ≥ 5.0 mass %

SMILES	Solubility in first liquid [1]	other results
COC(C)CCO (stereo not drawn) [Second liquid example (33), 3-methoxybutanol]	5.0 mass % or	–
C1CCOOC1 [Second liquid example (3), 1,2-dioxane]	5.0 mass % or	–
CC(=O)OCC(C)OC(C)=O (stereo not drawn) [Second liquid example (29), propylene glycol diacetate]	5.0 mass % or	–
CCOCCOCCO [Second liquid example (16), diethylene glycol monoethyl ether]	5.0 mass % or	–
COCCOC [Second liquid example (12), ethylene glycol dimethyl ether]	5.0 mass % or	–
C1COCOC1 [Second liquid example (4), 1,3-dioxane]	5.0 mass % or	–
COCOC [Second liquid example (2), dimethoxymethane]	5.0 mass % or	Solubility in water [2, 3]: 32.3 mass %
CC(C)COCCO [Second liquid example (19), ethylene glycol monoisobutyl ether]	5.0 mass % or	–
COCC(C)O (stereo not drawn) [Second liquid example (21), propylene glycol monomethyl ether]	5.0 mass % or	–
C1OCOCO1 [Second liquid example (6), 1,3,5-trioxane]	5.0 mass % or	Solubility in water [2, 3]: 21.1 mass %
CC(=O)OC(C)C [Liquid (4), isopropyl acetate, reference compound]	–	Solubility in water [2]: 2.9 mass %
CCCOCC(C)O (stereo not drawn) [Second liquid example (14), propylene glycol monopropyl ether]	5.0 mass % or	–
Cc1ccccc1C [First liquid example (5), o-Xylene]	–	Solubility in water ([2]; first liquid, 25° C. and 1 atm): 0.0 mass %
Clc1ccccc1 [First liquid example (4), Chlorobenzene]	–	Solubility in water ([2]; first liquid, 25° C. and 1 atm): 0.1 mass %
COC(C)COC(C)COC(C)CO (stereo not drawn) [Second liquid example (23), tripropylene glycol monomethyl ether]	5.0 mass % or	–
CC(=O)OCCCCOC(C)=O [Liquid (6), 1,4-butanediol diacetate, reference compound]	–	Solubility in water [2, 4]: 4.2 mass %; solubility in first solution [1]: ≥ 5.0 mass %
